Data set [1] relates to Human immunodeficiency virus 1. Kind of data set: Antiviral activity against HIV 1 RES056 harboring reverse transcriptase K103N/Y181C double mutant infected in human MT4 cells assessed as protection against virus-induced cytopathogenicity after 5 days by MTT assay. In kind it is functional, organism-based. The settings on record: Human immunodeficiency virus 1, RES056, MT4, 120 h. In general terms: Damage to the host cells serves as the signal in cytopathic effect assays.

Data set [2] can be described thus: Selectivity index, ratio of CC50 for uninfected human MT4 cells to EC50 for wild type HIV 1 3B infected in human MT4 cells. In kind it is toxicity, cell-based. The settings on record: uninfected and infected with wild type HIV-1 3B, read-out: Ratio CC50/EC50.
Data set [3] has as its target Human immunodeficiency virus type 1 reverse transcriptase (Human immunodeficiency virus 1, UniProt Q72547). Kind of data set: Inhibition of recombinant HIV1 Reverse transcriptase p66/p51 using poly (rA)-oligo (dT) as template primer after 40 mins by spectrofluorometric analysis.
A short description of data set [4]: Cytotoxicity against uninfected human MT4 cells assessed as decrease in cell viability after 5 days by MTT assay. In kind it is cell-based. (In general: Formazan colour is commonly taken as a measure of viable cells.)
Data set [5] relates to Human immunodeficiency virus 1. Kind of data set: Antiviral activity against wild type HIV 1 3B infected in human MT4 cells assessed as protection against virus-induced cytopathogenicity after 5 days by MTT assay. In kind it is functional, organism-based. The settings on record: Human immunodeficiency virus 1, 3B, MT4, 120 h.
In data set [6] the test system is Human immunodeficiency virus 2. Kind of data set: Antiviral activity against wild type HIV 2 ROD infected in human MT4 cells assessed as protection against virus-induced cytopathogenicity after 5 days by MTT assay. In kind it is functional, organism-based. The settings on record: Human immunodeficiency virus 2, ISOLATE ROD, MT4, 120 h.

Bounds are passed on as bounds.

As to `Cc1ccc(CNc2ccnc(Nc3ccc(C#N)cc3)n2)cc1C`, the EC50 – broadly, the concentration that produces a half-maximal response – in data set [1] was over 1.21 µg/mL; in data set [5] it was 3 nM; in data set [6] it was over 1.21 µg/mL. Besides, the selectivity ratio in data set [2] was 1190. Further, in data set [3], the IC50 (commonly the concentration that gives 50% inhibition) was found to be 9 nM. For the same compound, the CC50 (usually the concentration giving 50% cytotoxicity) at 120 h in data set [4] is 3670 nM.
Regarding `COc1ccc(CNc2ccnc(Nc3ccc(C#N)cc3)n2)cc1`, the EC50 in data set [1] was over 0.78 µg/mL; in data set [5], 39.3 nM; in data set [6] it was over 0.78 µg/mL. Besides, the selectivity ratio in data set [2] was 60. Besides, in data set [3], the concentration for half-maximal inhibition (IC50) was found to be 85 nM. Further, the CC50 at 120 h in data set [4] amounted to 2350 nM.
`Cc1ccnc2c1NC(=O)c1cccnc1N2C1CC1` [NEVIRAPINE]: in data set [1], the half-maximal effective concentration (EC50) is at least 2.02 µg/mL. Moreover, in data set [4], the CC50 at 120 h is over 15000 nM.
On to `N#Cc1ccc(Nc2nccc(NCc3cccc(F)c3)n2)cc1`, for which the figures for the EC50 in data set [1], in data set [5] and in data set [6] were over 0.45 µg/mL, 4.4 nM and over 0.45 µg/mL, respectively. Besides, in data set [2], the selectivity ratio is 333. The IC50 in data set [3] stood at 16 nM. Also, the CC50 at 120 h in data set [4] amounted to 1410 nM.
Consider `N#Cc1ccc(Nc2nccc(NCc3ccc(Cl)cc3)n2)cc1`, for which the concentration for a half-maximal effect (EC50) is over 1.1 µg/mL in data set [1], 47.6 nM in data set [5] and over 1.1 µg/mL in data set [6]. In addition, in data set [2], the selectivity ratio came out at 71. In addition, the IC50 in data set [3] stood at 48 nM. The CC50 at 120 h in data set [4] was determined as 3280 nM.
With `N#Cc1ccc(Nc2nccc(NCc3ccccc3F)n2)cc1`, the half-maximal effective concentration (EC50) in data set [1] is over 0.88 µg/mL; in data set [5] it was 2.6 nM; in data set [6], over 0.88 µg/mL. In addition, in data set [2], the selectivity ratio was found to be 1080. Moreover, the half-maximal inhibitory concentration (IC50) in data set [3] was determined as 16 nM. Further, the CC50 at 120 h in data set [4] came to 2760 nM.
For `N#Cc1ccc(Nc2nccc(NCc3ccc(Br)cc3)n2)cc1`, the EC50 in data set [1] was over 1.28 µg/mL; in data set [5], 39.4 nM; in data set [6], over 1.28 µg/mL. For the same compound, the selectivity ratio in data set [2] amounted to 85. Moreover, in data set [3], the half-inhibitory concentration (IC50) was found to be 29 nM. Also, the half-maximal cytotoxic concentration (CC50) at 120 h in data set [4] amounted to 3370 nM.
As to `Cc1cc(C#N)cc(C)c1Oc1nc(Nc2ccc(C#N)cc2)nc(N)c1Br` [ETRAVIRINE], in data set [4], the cytotoxic concentration (CC50) at 120 h is over 4590 nM.
As to `COc1ccccc1CNc1ccnc(Nc2ccc(C#N)cc2)n1`, the EC50 is over 27.3 µg/mL in data set [1], 87.5 nM in data set [5] and over 27.3 µg/mL in data set [6]. The selectivity ratio in data set [2] worked out at 937. Also, the 50% inhibitory concentration (IC50) in data set [3] was 936 nM. Also, the CC50 at 120 h in data set [4] came to 82400 nM.
For the compound `N#Cc1ccc(Nc2nccc(NCc3ccc(F)cc3)n2)cc1`, the concentration giving a half-maximal response (EC50) in data set [1] was over 0.55 µg/mL; in data set [5], 72 nM; in data set [6], over 0.55 µg/mL. The selectivity ratio in data set [2] came to 23. Moreover, in data set [3], the IC50 stood at 382 nM. Also, the CC50 at 120 h in data set [4] was 1720 nM.
Take `N#Cc1ccc(Nc2nccc(NCc3ccccc3Cl)n2)cc1`: the EC50 in data set [1] was over 92.3 µg/mL; in data set [5], 14.9 nM; in data set [6], over 92.3 µg/mL. Further, the selectivity ratio in data set [2] amounted to 18600. In data set [3], the IC50 was 24 nM. Also, the 50% cytotoxic concentration (CC50) at 120 h in data set [4] amounted to 275000 nM.
With `N#Cc1ccc(Nc2nccc(NCc3ccc(F)cc3F)n2)cc1`, the results for the concentration giving a half-maximal response (EC50) in data set [1], in data set [5] and in data set [6] were over 1.41 µg/mL, 16.9 nM and over 1.41 µg/mL, respectively. In data set [2], the selectivity ratio stood at 245. In addition, the IC50 in data set [3] was 56 nM. Besides, the CC50 at 120 h in data set [4] was 4180 nM.
As to `N#Cc1ccc(Nc2nccc(NCc3ccccc3)n2)cc1`, the EC50 in data set [1] was over 0.48 µg/mL; in data set [5] it was 5.3 nM; in data set [6], over 0.48 µg/mL. Besides, the selectivity ratio in data set [2] came to 294. Also, the IC50 in data set [3] was found to be 20 nM. In addition, the CC50 at 120 h in data set [4] worked out at 1590 nM.
For the compound `N#Cc1ccc(Nc2nccc(NCc3ccccc3C(F)(F)F)n2)cc1`, the EC50 is over 41.6 µg/mL in data set [1], 1060 nM in data set [5] and over 41.6 µg/mL in data set [6]. For the same compound, the selectivity ratio in data set [2] was determined as 107. Further, the IC50 in data set [3] was 1540 nM. Moreover, the CC50 at 120 h in data set [4] amounted to 113000 nM.
In the case of `N#Cc1ccc(Nc2nccc(NCc3ccc(C(F)(F)F)cc3)n2)cc1`, the figures for the EC50 in data set [1], in data set [5] and in data set [6] were over 1.11 µg/mL, 127 nM and over 1.11 µg/mL, respectively. Moreover, in data set [2], the selectivity ratio worked out at 24. Moreover, in data set [3], the half-inhibitory concentration (IC50) turned out to be 70 nM. Besides, the CC50 at 120 h in data set [4] came to 3010 nM.
`O=C1Nc2ccc(Cl)cc2[C@@](C#CC2CC2)(C(F)(F)F)O1` [EFAVIRENZ]: the 50% cytotoxic concentration (CC50) at 120 h in data set [4] is over 6340 nM. Further, the EC50 in data set [5] came out at 6.3 nM.
Take `Cc1ccc(CNc2ccnc(Nc3ccc(C#N)cc3)n2)cc1`: the concentration for a half-maximal effect (EC50) in data set [1] is over 0.79 µg/mL; in data set [5], 8.2 nM; in data set [6], over 0.79 µg/mL. Further, in data set [2], the selectivity ratio was 297. In addition, the IC50 in data set [3] came out at 13 nM. In data set [4], the CC50 at 120 h turned out to be 2500 nM.
Take `COc1cccc(CNc2ccnc(Nc3ccc(C#N)cc3)n2)c1`: the EC50 was over 0.79 µg/mL in data set [1], 4.5 nM in data set [5] and over 0.79 µg/mL in data set [6]. For the same compound, the selectivity ratio in data set [2] worked out at 518. Moreover, the IC50 in data set [3] amounted to 18 nM. Also, the CC50 at 120 h in data set [4] was determined as 2380 nM.
`N#Cc1ccc(Nc2nccc(NCc3cccc(Br)c3)n2)cc1`: the EC50 is over 0.67 µg/mL in data set [1], 20.3 nM in data set [5] and over 0.67 µg/mL in data set [6]. For the same compound, the selectivity ratio in data set [2] was 86. Besides, the IC50 in data set [3] came to 24 nM. For the same compound, in data set [4], the cytotoxic concentration (CC50) at 120 h amounted to 1760 nM.
For `N#Cc1ccc(Nc2nccc(NCc3cccc(Cl)c3)n2)cc1`, the EC50 in data set [1] is over 0.7 µg/mL; in data set [5], 11.9 nM; in data set [6], over 0.7 µg/mL. In addition, the selectivity ratio in data set [2] was found to be 175. Moreover, in data set [3], the IC50 was determined as 18 nM. Moreover, the cytotoxic concentration (CC50) at 120 h in data set [4] was determined as 2080 nM.
Regarding `N#Cc1ccc(Nc2nccc(NCc3ccccc3Br)n2)cc1`, the figures for the EC50 in data set [1], in data set [5] and in data set [6] were over 74.1 µg/mL, 42.1 nM and over 74.1 µg/mL, respectively. For the same compound, the selectivity ratio in data set [2] stood at 4680. For the same compound, the IC50 in data set [3] came to 71 nM. In addition, the CC50 at 120 h in data set [4] was 195000 nM.
Regarding `N#Cc1ccc(Nc2nccc(NCc3cccc(C(F)(F)F)c3)n2)cc1`, the results for the 50% effective concentration (EC50) in data set [1], in data set [5] and in data set [6] were over 0.71 µg/mL, 206 nM and over 0.71 µg/mL, respectively. Besides, the selectivity ratio in data set [2] was 9. In addition, the IC50 in data set [3] turned out to be 122 nM. Further, in data set [4], the CC50 at 120 h amounted to 1920 nM.

For the origin of these results see ChEMBL document CHEMBL3616422, “A novel family of diarylpyrimidines (DAPYs) featuring a diatomic linker: Design, synthesis and anti-HIV activities” (Bioorg Med Chem, 2015).
